Legend:
Assay in all cases: reverse glycosyl transfer
Assay type in all cases: biochemical
Conditions in all cases: 1 mM GDP, 1 mM MgCl2, pH 8.0, 30 °C; reverse reaction
[1] = biological target: AmphDI (Streptomyces nodosus, UniProt Q93NW9)
[2] = biological target: NysDI (Streptomyces noursei, UniProt Q9L4W6)
[3] = biological target: NysDI-T2 (Streptomyces noursei, UniProt Q9L4W6)

C[C@@H]1[C@H](O)[C@@H](C)/C=C/C=C/C=C/C=C/C=C/C=C/C=C/[C@H](O[C@@H]2O[C@H](C)[C@@H](O)[C@H](N)[C@@H]2O)C[C@@H]2O[C@](O)(C[C@@H](O)C[C@@H](O)[C@H](O)CC[C@@H](O)C[C@@H](O)CC(=O)O[C@H]1C)C[C@H](O)[C@H]2C(=O)O [compound 1, amphotericin B]
reverse glycosyl transfer (deglycosylation), RP-HPLC [1]: reaction reversibility assessed in the presence of AmphDI, NysDI and NysDI-T2 | reverse glycosyl transfer (deglycosylation), RP-HPLC [2]: reaction reversibility assessed in the presence of AmphDI, NysDI and NysDI-T2 | reverse glycosyl transfer (deglycosylation), RP-HPLC [3]: reaction reversibility assessed in the presence of AmphDI, NysDI and NysDI-T2
